pIC50, pKi: −log10 of the molar value. Activity calls are given as the source filed them. The rule behind the calls is not given here.
What was measured:
Cholinesterase [1] = molecular target: T1, Cholinesterase (Equus caballus, UniProt P81908); experiment: Inhibition of equine serum BuChE using butyrylthiocholine iodide as substrate preincubated for 30 mins followed by substrate addition and measured for 1 min by DTNB reagent-based spectrophotometric analysis
[2] = Permeability of the compound in pH 7.4 PBS buffer incubated for 18 hrs by PAMPA-BBB assay
Acetylcholinesterase [3] = molecular target: T2, Acetylcholinesterase (Electrophorus electricus, UniProt O42275); experiment: Inhibition of electric eel AChE using acetylthiocholine iodide as substrate preincubated with enzyme for 30 mins followed by substrate addition and measured for 1 min by DTNB reagent-based spectrophotometric analysis
[4] = Selectivity index, ratio of IC50 for equine serum BuChE to IC50 for electric eel AChE
Rattus norvegicus [5] = experiment: (§1) Improvement in learning and spatial memory in icv infused amyloid beta (1 to 42)-induced Wistar rat model of Alzheimer's disease assessed as reduction in disordered neuron in hippocampal region at 5 mg/kg, po administered daily for 7 days starting from 7 days post surgery and measured after 6 days by H and E staining-based microscopic analysis; assay type: functional, organism-based
Rattus norvegicus [6] = experiment: (§2) Improvement in learning and spatial memory in icv infused amyloid beta (1 to 42)-induced Wistar rat model of Alzheimer's disease assessed as increase in number of platform crossing at 5 mg/kg, po administered daily for 7 days starting from 7 days post surgery and measured after 6 days by Morris water maze test; assay type: functional, organism-based
SH-SY5Y [7] = experiment: Neuroprotective activity against amyloid beta (1 to 42)-induced cytotoxicity in human SH-SY5Y cells assessed as increase in cell viability at 10 to 20 uM measured after 72 hrs by MTT assay; assay type: functional, cell-based
Rattus norvegicus [8] = experiment: as §1, with “degeneration of” for “disordered”; assay type: functional, organism-based
Rattus norvegicus [9] = experiment: as §2, with “time spent in” for “number of”, “zone” for “crossing”; assay type: functional, organism-based
Rattus norvegicus [10] = experiment: Cognitive enhancing effect in scopolamine-induced Wistar rat model of amnesia assessed as increase in spontaneous alteration at 5 mg/kg pretreated for 7 days followed by scopolamine challenge and measured after 30 mins by Y-maze test; assay type: functional, organism-based
Rattus norvegicus [11] = experiment: as §2, with “reduction” for “increase”, “escape latency” for “number of platform crossing”, “daily for 5” for “after 6”; assay type: functional, organism-based
[12] = molecular target: T3, Amyloid-beta precursor protein (Homo sapiens, UniProt P05067); experiment: Displacement of [125I]IMPY from human amyloid beta(1-42) aggregates incubated for 3 hrs by gamma counting analysis
[13] = molecular target: Cholinesterase (Equus caballus) (UniProt P81908); experiment: Non-competitive inhibition of equine serum BuChE assessed as decrease in Km at 0.5 to 1.5 uM using varying levels of butyrylthiocholine iodide as substrate measured every 2 mins for 10 mins by reciprocal Lineweaver-Burk plot analysis
Rattus norvegicus [14] = experiment: as §1, with “degeneration of” for “disordered”, “10” for “5”; assay type: functional, organism-based
[15] = molecular target: Cholinesterase (Equus caballus) (UniProt P81908); experiment: Non-competitive inhibition of equine serum BuChE assessed as decrease in Vmax at 0.5 to 1.5 uM using varying levels of butyrylthiocholine iodide as substrate measured every 2 mins for 10 mins by reciprocal Lineweaver-Burk plot analysis
SH-SY5Y [16] = experiment: Neuroprotective activity against amyloid beta (1 to 42)-induced cytotoxicity in human SH-SY5Y cells assessed as increase in cell viability at 40 to 80 uM measured after 72 hrs by MTT assay; assay type: functional, cell-based
[17] = molecular target: Acetylcholinesterase (Electrophorus electricus) (UniProt O42275); experiment: Non-competitive inhibition of electric eel AChE assessed as decrease in Km at 25 to 75 nM using varying levels of acetylthiocholine iodide as substrate measured every 2 mins for 10 mins by reciprocal Lineweaver-Burk plot analysis
[18] = molecular target: T3, Amyloid-beta precursor protein; experiment: Inhibition of human amyloid beta (1 to 42) self-induced aggregation at 5 to 20 uM after 48 hrs by Thioflavin T based fluorometric assay
Cholinesterase [19] = molecular target: T1, Cholinesterase; experiment: Non-competitive inhibition of equine serum BuChE using varying levels of butyrylthiocholine iodide as substrate measured at 2 mins interval for 10 mins by Dixon plot analysis
[20] = Acute toxicity in Wistar rat assessed as animal death measured for 72 hrs by OCED guideline method; conditions: in vivo
[21] = Toxicity in Wistar rat assessed as change in body weight at 300 mg/kg measured for 72 hrs; assay type: organism-based; conditions: in vivo
Rattus norvegicus [22] = experiment: as §1, with “10” for “5”; assay type: functional, organism-based
Acetylcholinesterase [23] = molecular target: T2, Acetylcholinesterase; experiment: Non-competitive inhibition of electric eel AChE using varying levels of acetylthiocholine iodide as substrate measured at 2 mins interval for 10 mins by Dixon plot analysis
Rattus norvegicus [24] = experiment: as §2, with “10” for “5”; assay type: functional, organism-based
Rattus norvegicus [25] = species: Rattus norvegicus; experiment: Ex vivo inhibition of AChE in brain of scopolamine-induced Wistar rat model of amnesia pretreated for 7 days followed by scopolamine challenge and measured after 30 mins using acetylthiocholine iodide as substrate by Ellman's method; assay type: functional, organism-based
[26] = molecular target: Acetylcholinesterase (Electrophorus electricus) (UniProt O42275); experiment: Inhibition of electric eel AChE-induced amyloid beta (1 to 42) aggregation at 5 to 20 uM after 48 hrs by thioflavin T-based fluorometric assay
Rattus norvegicus [27] = experiment: as §2, with “time spent in” for “number of”, “zone” for “crossing”, “10” for “5”; assay type: functional, organism-based
Rattus norvegicus [28] = experiment: as §2, with “reduction” for “increase”, “escape latency” for “number of platform crossing”, “10” for “5”, “daily for 5” for “after 6”; assay type: functional, organism-based
Rattus norvegicus [29] = species: Rattus norvegicus; experiment: Cognitive enhancing effect in scopolamine-induced Wistar rat model of amnesia assessed as increase in spontaneous alteration pretreated for 7 days followed by scopolamine challenge and measured after 30 mins by Y-maze test; assay type: functional, organism-based
[30] = molecular target: Acetylcholinesterase (Electrophorus electricus) (UniProt O42275); experiment: Non-competitive inhibition of electric eel AChE assessed as decrease in Vmax at 25 to 75 nM using varying levels of acetylthiocholine iodide as substrate measured every 2 mins for 10 mins by reciprocal Lineweaver-Burk plot analysis

T1 sequence (P81908 whole entry): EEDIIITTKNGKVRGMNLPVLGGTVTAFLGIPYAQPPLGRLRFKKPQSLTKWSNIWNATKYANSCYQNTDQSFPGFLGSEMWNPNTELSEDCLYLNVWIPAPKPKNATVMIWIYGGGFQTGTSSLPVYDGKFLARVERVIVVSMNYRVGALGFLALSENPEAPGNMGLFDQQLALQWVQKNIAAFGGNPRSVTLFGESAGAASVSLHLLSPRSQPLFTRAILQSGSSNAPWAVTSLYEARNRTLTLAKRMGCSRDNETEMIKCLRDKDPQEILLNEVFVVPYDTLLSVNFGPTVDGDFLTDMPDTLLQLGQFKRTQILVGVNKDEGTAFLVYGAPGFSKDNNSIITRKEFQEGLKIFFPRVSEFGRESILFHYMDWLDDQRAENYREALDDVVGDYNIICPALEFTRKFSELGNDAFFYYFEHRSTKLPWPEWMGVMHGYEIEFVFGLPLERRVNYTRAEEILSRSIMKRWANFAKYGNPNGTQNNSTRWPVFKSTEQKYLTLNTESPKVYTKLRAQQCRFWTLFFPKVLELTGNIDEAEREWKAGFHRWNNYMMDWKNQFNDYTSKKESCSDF
T2 sequence (O42275 whole entry): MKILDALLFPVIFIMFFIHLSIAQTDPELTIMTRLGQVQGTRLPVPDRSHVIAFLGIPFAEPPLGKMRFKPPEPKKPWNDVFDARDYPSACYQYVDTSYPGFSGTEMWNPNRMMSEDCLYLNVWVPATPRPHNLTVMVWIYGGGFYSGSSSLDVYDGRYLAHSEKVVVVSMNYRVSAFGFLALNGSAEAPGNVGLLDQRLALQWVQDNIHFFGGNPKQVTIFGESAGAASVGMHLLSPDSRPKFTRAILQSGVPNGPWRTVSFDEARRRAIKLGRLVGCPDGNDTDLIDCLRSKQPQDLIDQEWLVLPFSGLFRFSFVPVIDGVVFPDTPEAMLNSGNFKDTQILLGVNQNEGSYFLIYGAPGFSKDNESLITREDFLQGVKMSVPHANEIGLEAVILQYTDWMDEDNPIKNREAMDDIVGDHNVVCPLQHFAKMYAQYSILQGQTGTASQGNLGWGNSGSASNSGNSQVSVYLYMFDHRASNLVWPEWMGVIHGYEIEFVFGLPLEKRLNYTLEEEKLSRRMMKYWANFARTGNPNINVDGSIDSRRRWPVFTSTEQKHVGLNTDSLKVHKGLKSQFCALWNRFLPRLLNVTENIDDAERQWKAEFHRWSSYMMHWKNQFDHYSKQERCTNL
Sequence of Acetylcholinesterase (Electrophorus electricus) (O42275 24-633 limits assumed): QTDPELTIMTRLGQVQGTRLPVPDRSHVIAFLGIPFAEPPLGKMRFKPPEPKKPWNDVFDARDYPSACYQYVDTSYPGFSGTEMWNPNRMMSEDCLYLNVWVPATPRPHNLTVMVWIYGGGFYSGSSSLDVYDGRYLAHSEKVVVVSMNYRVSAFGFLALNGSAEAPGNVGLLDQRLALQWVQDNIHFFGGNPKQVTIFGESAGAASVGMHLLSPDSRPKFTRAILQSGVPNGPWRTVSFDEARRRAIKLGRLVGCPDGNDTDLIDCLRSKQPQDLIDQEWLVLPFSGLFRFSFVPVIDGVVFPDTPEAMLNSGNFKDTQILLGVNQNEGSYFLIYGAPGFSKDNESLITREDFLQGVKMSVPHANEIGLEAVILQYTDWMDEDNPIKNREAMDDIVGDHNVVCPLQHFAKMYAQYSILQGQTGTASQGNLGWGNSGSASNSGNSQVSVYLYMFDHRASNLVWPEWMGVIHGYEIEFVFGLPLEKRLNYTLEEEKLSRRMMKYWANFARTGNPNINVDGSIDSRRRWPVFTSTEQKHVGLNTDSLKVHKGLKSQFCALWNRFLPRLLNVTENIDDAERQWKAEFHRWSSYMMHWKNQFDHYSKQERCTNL
T3 sequence (P05067 whole entry): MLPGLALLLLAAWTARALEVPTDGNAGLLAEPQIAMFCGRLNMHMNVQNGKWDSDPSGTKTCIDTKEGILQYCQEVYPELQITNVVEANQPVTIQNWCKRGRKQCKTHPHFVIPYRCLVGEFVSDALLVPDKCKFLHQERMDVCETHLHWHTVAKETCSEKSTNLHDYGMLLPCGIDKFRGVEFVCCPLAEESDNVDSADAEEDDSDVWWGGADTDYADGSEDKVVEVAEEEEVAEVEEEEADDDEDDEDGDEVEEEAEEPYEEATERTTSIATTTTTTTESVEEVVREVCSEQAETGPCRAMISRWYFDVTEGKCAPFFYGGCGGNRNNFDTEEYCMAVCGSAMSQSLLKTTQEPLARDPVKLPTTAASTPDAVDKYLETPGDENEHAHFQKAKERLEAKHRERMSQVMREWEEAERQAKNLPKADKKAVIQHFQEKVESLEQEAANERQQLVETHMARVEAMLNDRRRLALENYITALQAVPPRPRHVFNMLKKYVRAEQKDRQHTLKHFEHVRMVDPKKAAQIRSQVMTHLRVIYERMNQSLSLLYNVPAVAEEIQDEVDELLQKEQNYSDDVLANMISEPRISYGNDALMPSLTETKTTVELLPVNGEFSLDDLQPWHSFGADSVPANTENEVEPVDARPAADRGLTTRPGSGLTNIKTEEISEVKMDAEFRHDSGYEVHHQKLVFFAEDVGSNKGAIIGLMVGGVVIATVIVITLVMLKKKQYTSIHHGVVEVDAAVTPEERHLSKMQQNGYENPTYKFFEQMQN
Sequence of Cholinesterase (Equus caballus) (P81908 whole entry): as the sequence (P81908 whole entry) above

| Compound | pIC50 (Cholinesterase [1]) | Papp at 18 h [2] [×10⁻⁶ cm/s] | pIC50 (Acetylcholinesterase [3]) | Ratio IC50 [4] | further results |
| --- | --- | --- | --- | --- | --- |
| Nc1ccc2oc(N3CCN(C(=O)c4ccc5c(c4)OCO5)CC3)nc2c1 | 5.82 | 9.64 | 6.21 | 2.4 | – |
| Nc1ccc2oc(N3CCN(C(=O)c4cccc(Br)c4)CC3)nc2c1 | 5.57 | 10.5 | 6.79 | 16.4 | – |
| Nc1ccc2oc(N3CCN(Cc4ccc(Br)cc4)CC3)nc2c1 | 5.53 | 11.3 | 6.42 | 7.8 | – |
| Nc1ccc2oc(NC3CCN(Cc4ccccc4)CC3)nc2c1 | 5.64 | 9.47 | 6.25 | 4 | – |
| Nc1ccc2oc(N3CCN(CCc4ccccc4)CC3)nc2c1 | 6.02 | 13.4 | 6.41 | 2.4 | – |
| COc1cc2c(cc1OC)C(=O)C(CC1CCN(Cc3ccccc3)CC1)C2 (configuration not stated) | – | – | – | – | Activity (Rattus norvegicus [5]): Active; Activity (Rattus norvegicus [6]): Active; Activity (SH-SY5Y [7]): Active; Activity (Rattus norvegicus [8]): Active; Activity (Rattus norvegicus [9]): Active; Activity (Rattus norvegicus [10]): Active; Activity (Rattus norvegicus [11]): Active |
| CN(C)c1ccc(-c2nc3cc([125I])ccc3o2)cn1 | – | – | – | – | pKi [12]: 8.16 |
| COc1cc2c(cc1OC)C(=O)C(Cc1cc[n+](Cc3ccccc3)cc1Br)C2 (configuration not stated) | – | – | 9.44 | – | – |
| Nc1ccc2oc(N3CCCCC3)nc2c1 | 4.62 | – | 5.25 | – | – |
| Nc1ccc2oc(N3CCN(c4ccc(F)cc4)CC3)nc2c1 | 5.19 | 10.7 | 5.84 | 4.4 | – |
| Nc1ccc2oc(N3CCN(c4ccccc4)CC3)nc2c1 | 4.78 | 10.3 | 5.68 | 8 | – |
| Nc1ccc2oc(N3CCN(c4ccc(Cl)cc4)CC3)nc2c1 | 4.95 | 10.6 | 5.71 | 5.6 | – |
| Cc1ccc(CN2CCN(c3nc4cc(N)ccc4o3)CC2)cc1 | 5.29 | 10.6 | 6.09 | 6.4 | – |
| Nc1ccc2oc(N3CCN(C(=O)c4cccc(Cl)c4)CC3)nc2c1 | 5.34 | 10.4 | 6.62 | 18.9 | – |
| Nc1ccc2oc(N3CCOCC3)nc2c1 | 4.49 | 7.44 | 5.15 | 4.5 | – |
| COc1ccc(Cl)cc1C(=O)N1CCN(c2nc3cc(N)ccc3o2)CC1 | 5.86 | 8.82 | 6.49 | 4.2 | – |
| Nc1ccc2oc(N3CCN(C(=O)c4ccc(Cl)cc4)CC3)nc2c1 | 5.48 | 10.4 | 6.96 | 30.4 | – |
| Nc1ccc2oc(N3CCN(Cc4ccc(Cl)cc4)CC3)nc2c1 | 5.41 | 10.7 | 6.13 | 5.1 | – |
| CC(C)c1ccc(CN2CCN(c3nc4cc(N)ccc4o3)CC2)cc1 | 4.95 | 11.6 | 6.03 | 11.9 | – |

| Compound | pIC50 (Cholinesterase [1]) | Papp at 18 h [2] [×10⁻⁶ cm/s] | pIC50 (Acetylcholinesterase [3]) | Ratio IC50 [4] | further results |
| --- | --- | --- | --- | --- | --- |
| Cc1ccc(N2CCN(c3nc4cc(N)ccc4o3)CC2)cc1 | 5.05 | 10.4 | 5.38 | 2.1 | – |
| Nc1ccc2oc(N3CCN(Cc4ccc(F)cc4)CC3)nc2c1 | 5.51 | 10.5 | 6.28 | 5.9 | – |
| Nc1ccc2oc(N3CCN(C(=O)c4ccc(Br)cc4)CC3)nc2c1 | 5.96 | 10.8 | 7.28 | 20.8 | inhibition [13]: Active; Activity (Rattus norvegicus [14]): Active; inhibition [15]: Active; Activity (SH-SY5Y [16]): Active; inhibition [17]: Active; inhibition [18]: Active; pKi (Cholinesterase [19]): 6.07; Activity [20]: Toxic; Activity [21]: Toxic; Activity (Rattus norvegicus [22]): Active; pKi (Acetylcholinesterase [23]): 7.52; Activity (Rattus norvegicus [24]): Active; Activity (SH-SY5Y [7]): inactive; inhibition (Rattus norvegicus [25]): Dose-dependent effect; inhibition [26]: Active; Activity (Rattus norvegicus [27]): Active; Activity (Rattus norvegicus [28]): Active; Activity (Rattus norvegicus [29]): Dose-dependent effect; inhibition [30]: Active |
| Nc1ccc2oc(N3CCN(C(=O)c4ccccc4)CC3)nc2c1 | 5.22 | – | 6.10 | – | – |
| COc1ccc(C(=O)N2CCN(c3nc4cc(N)ccc4o3)CC2)cc1 | 5.14 | 9.71 | 6.56 | 26.6 | – |
| COc1ccc(N2CCN(c3nc4cc(N)ccc4o3)CC2)cc1 | 4.89 | 10.5 | 5.68 | 6.1 | – |
| COc1ccc(CN2CCN(c3nc4cc(N)ccc4o3)CC2)cc1 | 5.20 | 9.49 | 6.13 | 8.4 | – |
| Nc1ccc2oc(N3CCN(C(=O)c4ccc(F)cc4)CC3)nc2c1 | 6.09 | 9.67 | 7.14 | 11.1 | – |
| COc1ccccc1C(=O)N1CCN(c2nc3cc(N)ccc3o2)CC1 | 5.13 | 9.21 | 6.03 | 7.9 | – |
| Nc1ccc2oc(N3CCN(C(=O)c4ccccc4Cl)CC3)nc2c1 | 5.31 | 10.3 | 6.25 | 8.6 | – |
| Nc1ccc2oc(N3CCN(Cc4ccccc4)CC3)nc2c1 | 5.17 | 10.2 | 6.04 | 7.3 | – |
| C#CCN(Cc1ccc2cccc(O)c2n1)C(C#N)CCC1CCN(Cc2ccccc2)CC1 (configuration not stated) | – | – | 7.54 | – | – |
| Nc1ccc2oc(N3CCN(c4ccc(Br)cc4)CC3)nc2c1 | 5.06 | 10.5 | 5.98 | 8.3 | – |
| Nc1ccc2oc(N3CCN(C(=O)c4cccc(F)c4)CC3)nc2c1 | 5.26 | 9.51 | 6.64 | 23.9 | – |
| Nc1ccc2oc(N3CCN(c4ccccn4)CC3)nc2c1 | 4.82 | 9.44 | 5.48 | 4.5 | – |
| Nc1ccc2oc(N3CCN(C(=O)c4ccccc4F)CC3)nc2c1 | 5.08 | 9.55 | 6.47 | 24.9 | – |
| Nc1ccc2oc(N3CCN(C(=O)c4ccccc4Br)CC3)nc2c1 | 5.21 | 10.6 | 6.35 | 13.9 | – |
| COc1cccc(C(=O)N2CCN(c3nc4cc(N)ccc4o3)CC2)c1 | 4.93 | 9.54 | 6.26 | 21.3 | – |
